Source: the supplement of paper PMC10627819

Tests used:
[1] = test system: S. pneumoniae D39V; assay: fitness (endpoint OD595 vs no drug) (fraction); higher = more growth
Procedure, shortened: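 Background-subtracted growth curves were the basis for fitness, taken as the optical density at entry into stationary phase over the robust mean of no-drug control wells. A cap of 1 was applied. The curves came from OD595 readings every 30 min for 14 h at 37 °C, in 384-well plates seeded at OD595 0.01 with 30 µl, or 55 µl for S. pneumoniae.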

[2] = test system: B. subtilis 168; assay: Bliss interaction score (quartile over a dose matrix) (fitness difference); higher = more antagonism (negative = synergy)
Procedure, shortened: (§1)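 Quartiles summarise the Bliss score over technical, biological and donor/recipient replicates, where the score is observed minus expected fitness under a product model. Expected fitness uses single-drug values inferred from combination data. Fitness is OD595 at entry into stationary phase over the plate's robust no-drug mean, capped at 1.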

[3] = test system: S. aureus Newman; assay: as above
Procedure, shortened: as §1

[4] = test system: S. aureus DSM 20231; assay: as above
Procedure, shortened: as §1

[5] = test system: S. pneumoniae D39V; assay: as above
Procedure, shortened: as §1
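For Bliss interaction score (quartile over a dose matrix) in this document: first quartile when negative (synergy) and third quartile when positive (antagonism).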

C[C@@H](O)[C@H]1C(=O)N2C(C(=O)O)=C(SCCNC=N)C[C@H]12 [Imipenem] + COc1ccc(C[C@H](N)C(=O)N[C@H]2[C@@H](O)[C@H](n3cnc4c(N(C)C)ncnc43)O[C@@H]2CO)cc1 [Puromycin]
fitness, [1], one replicate
Conditions	first compound 0.005 µg/mL	first compound 0.01 µg/mL	first compound 0.02 µg/mL
partner 1 µg/mL	0.896	0.955	0.973
partner 2 µg/mL	0.931	0.954	0.941
partner 4 µg/mL	0.729	0.791	0.759

fitness, [1]
Conditions	first compound 0.0065 µg/mL	first compound 0.013 µg/mL	first compound 0.026 µg/mL
partner 1 µg/mL	0.992	0.989	0.964
partner 2 µg/mL	0.96	0.886	0.906
partner 4 µg/mL	0.748	0.783	0.739

Conditions	Bliss interaction score
[2]	0.0681
[3]	-0.0481
[4]	0.0683
[5]	0.0871

C[C@@H](O)[C@H]1C(=O)N2C(C(=O)O)=C(SCCNC=N)C[C@H]12 [Imipenem] + C[C@H]1COc2c(N3CCN(C)CC3)c(F)cc3c(=O)c(C(=O)O)cn1c23 [Levofloxacin]
fitness, [1]
Conditions	first compound 0.005 µg/mL	first compound 0.0065 µg/mL	first compound 0.01 µg/mL	first compound 0.013 µg/mL	first compound 0.02 µg/mL	first compound 0.026 µg/mL
partner 0.1725 µg/mL	0.958	–	0.948	–	0.963	–
partner 0.2 µg/mL	–	0.886	–	0.885	–	0.871
partner 0.345 µg/mL	0.894	–	0.877	–	0.826	–
partner 0.4 µg/mL	–	0.77	–	0.778	–	0.713
partner 0.69 µg/mL	0.571	–	0.615	–	0.576	–
partner 0.8 µg/mL	–	0.227	–	0.361	–	0.329

Conditions	Bliss interaction score
[2]	-0.17
[3]	0.0287
[4]	0.025
[5]	-0.0377

C[C@@H](O)[C@H]1C(=O)N2C(C(=O)O)=C(SCCNC=N)C[C@H]12 [Imipenem] + C[n+]1ccc(-c2cc[n+](C)cc2)cc1 [Paraquat]
fitness, [1], one replicate
Conditions	first compound 0.005 µg/mL	first compound 0.01 µg/mL	first compound 0.02 µg/mL
partner 1.5 µg/mL	0.991	0.997	≥ 1
partner 3 µg/mL	0.994	0.996	≥ 1
partner 6 µg/mL	≥ 1	≥ 1	0.998

fitness, [1]
Conditions	first compound 0.0065 µg/mL	first compound 0.013 µg/mL	first compound 0.026 µg/mL
partner 1.5 µg/mL	0.97	0.983	–
partner 3 µg/mL	0.968	0.969	0.939
partner 6 µg/mL	0.926	0.799	0.847

Conditions	Bliss interaction score
[2]	-0.0424
[3]	0.0426
[4]	0.0307
[5]	0.0638

C[C@@H](O)[C@H]1C(=O)N2C(C(=O)O)=C(SCCNC=N)C[C@H]12 [Imipenem] + Cc1cc(NS(=O)(=O)c2ccc(N)cc2)no1 [Sulfamethoxazol]
fitness, [1], one replicate
Conditions	first compound 0.005 µg/mL	first compound 0.01 µg/mL	first compound 0.02 µg/mL
partner 1 µg/mL	0.993	0.998	0.959
partner 2 µg/mL	0.957	0.924	0.982
partner 4 µg/mL	0.879	0.856	0.859

fitness, [1]
Conditions	first compound 0.0065 µg/mL	first compound 0.013 µg/mL	first compound 0.026 µg/mL
partner 1 µg/mL	0.96	0.923	0.82
partner 2 µg/mL	0.976	0.932	0.925
partner 4 µg/mL	0.976	0.941	0.917

Conditions	Bliss interaction score
[2]	0.0891
[3]	-0.0488
[4]	-0.0317
[5]	0.066

C[C@@H](O)[C@H]1C(=O)N2C(C(=O)O)=C(SCCNC=N)C[C@H]12 [Imipenem] + Cc1ncc([N+](=O)[O-])n1CCO [Metronidazole]
fitness, [1]
Conditions	first compound 0.005 µg/mL	first compound 0.0065 µg/mL	first compound 0.01 µg/mL	first compound 0.013 µg/mL	first compound 0.02 µg/mL	first compound 0.026 µg/mL
partner 1.073 µg/mL	0.961	–	0.945	–	0.919	–
partner 1.25 µg/mL	–	0.991	–	0.995	–	0.985
partner 2.145 µg/mL	0.872	–	0.737	–	0.886	–
partner 2.5 µg/mL	–	0.988	–	≥ 1	–	0.984
partner 4.29 µg/mL	0.908	–	0.903	–	0.903	–
partner 5 µg/mL	–	0.99	–	0.969	–	0.961

Conditions	Bliss interaction score
[2]	0.0502
[3]	-0.0547
[4]	0.0365
[5]	0.0768

C[C@@H](O)[C@H]1C(=O)N2C(C(=O)O)=C(SCCNC=N)C[C@H]12 [Imipenem] + Cc1onc(-c2ccccc2)c1C(=O)N[C@@H]1C(=O)N2[C@@H]1SC(C)(C)[C@@H]2C(=O)O [Oxacillin]
fitness, [1]
Conditions	first compound 0.005 µg/mL	first compound 0.0065 µg/mL	first compound 0.01 µg/mL	first compound 0.013 µg/mL	first compound 0.02 µg/mL	first compound 0.026 µg/mL
partner 0.01 µg/mL	0.963	0.968	0.983	0.996	0.95	0.956
partner 0.02 µg/mL	0.92	0.845	0.933	0.902	0.905	0.812
partner 0.04 µg/mL	0.524	0.0658	0.511	0.171	0.468	0.109

Conditions	Bliss interaction score
[2]	-0.048
[3]	0.0474
[4]	-0.0527
[5]	0.0736
